Source: patent publication US20240132477A1, “Benzimidazole Derivatives and Their Use As Inhibitors of ITK For The Treatment of Skin Disease” (PFIZER INC., priority 2020, published 2024)
pIC50: −log10 of the molar value.

Columns and labels:
[1] = target: IL-2-Inducible T-Cell Kinase (ITK) (Homo sapiens (Human), UniProt Q08881); assay: ITK enzyme assay; type: biochemical; details: geometric mean of count n; ITK FL enzyme, BTK peptide substrate
Experimental: IL-2-Inducible T-Cell Kinase (ITK) Activity, IC50 (uM)
ITK activity was determined by measuring the effect of a test compound in an ITK enzyme assay.
1.0 M HEPES Buffer pH 7.5 solution was prepared as follows: 238.3 g HEPES free acid (Sigma) and 800 mL of water were combined, and the mixture was stirred until complete dissolution. The pH was adjusted to 7.5 via titration with 5N NaOH and the volume adjusted to 1000 mL. The solution was filtered and sterilized.
ITK assay buffer was prepared as follows: 50 mL of HPLC-grade water was treated with 2 mL of 1.0 M HEPES Buffer, 500 μL of 2% Gelatin (Sigma), 1.0 mL of aqueous MgCl2 solution (1.0 M), and 1.0 mL of aqueous glutathione solution (0.5 M), and the solution was mixed. The solution was brought to 99 mL in a graduated cylinder by addition of water and sterilized through a 0.2 μm filter. 0.1 mL of Brij-35™ Surfact-AmpS™ Detergent Solution (10% w/v aqueous solution, ThermoFisher) and 1.0 mL of ATP (Teknova, 100 mM) were added and the solution was mixed.
Preparation of 1.33×ITK enzyme solution was as follows: 49.99 mL of ITK assay buffer was treated with 4.1 μL of ITK enzyme (ITK FL (N-Flag and C-His tagged, ˜72 kDa) Lake Pharma, 0.25 mg/ml in a buffer containing 25 mM Tris pH 7.8, 150 mM NaCl, 10% glycerol and 2 mM TCEP) and the mixture was gently agitated. The resulting solution was stored on ice. 30 Minutes prior to use, the enzyme solution was removed from ice and equilibrated to RT by incubation in a RT water bath.
Preparation of 4×ITK substrate solution was as follows: 50 mL of ITK assay buffer was treated with 100 μL of BTK peptide (China Peptide Company, 2 mM stock solution in DMSO). The tube was capped, mixed by gently inverting the tube, and then stored on ice. 30 Minutes prior to use, the substrate solution was removed from ice and equilibrated to RT by incubation in a RT water bath.
At the time of assay, 7.5 μL of the 1.33×ITK enzyme solution was added to plate wells containing 0.1 μL of varying concentrations of test compound in DMSO. The plate was incubated 30 min at RT. The plate wells were each treated with 2.5 uL of the 4×ITK substrate solution and the plate was sealed (TopSeal™, Perkin Elmer). The plate was spun at 1000 rpm for 30 sec and then incubated for 60 min at RT. The seal was removed, and each well was treated with 10 μL of Stop/Detect Buffer (20 mM HEPES pH 7.5, 0.01% gelatin, 1 nM LANCE PT66 (Perkin Elmer), 16.5 μg/ml Surelight APC (Perkin Elmer), 10 mM EDTA, 250 mM NaCl). The plate was again covered and was spun at 1000 rpm for 30 seconds. The plate was allowed to incubate overnight at RT and in a closed carrier to reduce dehydration. The seal was removed, and the fluorescence was read with a plate reader with […]. The concentrations and resulting effect values for the tested compound were plotted and the concentration of compound required for 50% effect (IC50) was determined with the four-parameter logistic dose response equation.

[2] = system: IL-2 in supernatants from activated CD4+ human T-cells; assay: IL-2 inhibition in supernatants from activated CD4+ human T-cells (cisbio HTRF); type: cell-based; details: T-cell; geometric mean of count n; activated CD4+ human T-cells, 20 to 24 hrs; read-out: IL-2 IC50
Experimental: IL-2-Inhibition Activity, IC50 (uM)
IL-2 inhibition activity in supernatants from activated CD4+ human T-cells was determined by measuring the effect of a test compound on the activity using the cisbio HTRF™ technology.
Human CD4+ T cells were activated with CD3/CD28 for 3 days and expanded for an additional 4-6 days (7 to 9 days total). On day 0, frozen CD4+ T cells were thawed, treated with CD3/CD28 Dynabeads, and incubated at 37° C./5% CO2. On day 3, the beads were removed, and the cells were diluted to 5×10^5 cells/cm^2, placed in G-Rex10 flask, and incubated at 37° C./5% CO2. On day 7 to day 9 the cells were removed from the G-Rex flasks, counted and diluted back to 1×10^6 cells/ml in standard tissue culture flask.
The expanded CD4+ T-cells were centrifuged at 300×g for 10 minutes and resuspended to 0.5 million cells per ml (30,000 cells/well). 60 μl of CD4+ T cells were added per well to a 384 well plate containing 0.1 μL of varying concentrations of test compound in DMSO. The plates were incubated for 15 min at 37° C./5% CO2. 20 μl of diluted ImmunoCult™ (STEMCELL Technologies, 1:12.5 in T cell assay media) were added to all wells of the plate (1:50 final assay concentration). The plates were incubated for an additional 20 to 24 hrs at 37° C./5% CO2. The plates were centrifuged at 300×g for 10 minutes. 16 μL of supernatant was removed and combined with 4 μl of IL-2 HTRF Abs. (cisbio kit). Plates were incubated for 3 hours at RT and read with an EnVision plate reader at 665 nm and 615 nm wavelengths. The concentrations and resulting effect values for the tested compound were plotted and the concentration of compound required for 50% effect (IC50) was determined with the four-parameter logistic dose response equation.

IL-2-Inducible T-Cell Kinase (ITK), sequence (Q08881 whole entry): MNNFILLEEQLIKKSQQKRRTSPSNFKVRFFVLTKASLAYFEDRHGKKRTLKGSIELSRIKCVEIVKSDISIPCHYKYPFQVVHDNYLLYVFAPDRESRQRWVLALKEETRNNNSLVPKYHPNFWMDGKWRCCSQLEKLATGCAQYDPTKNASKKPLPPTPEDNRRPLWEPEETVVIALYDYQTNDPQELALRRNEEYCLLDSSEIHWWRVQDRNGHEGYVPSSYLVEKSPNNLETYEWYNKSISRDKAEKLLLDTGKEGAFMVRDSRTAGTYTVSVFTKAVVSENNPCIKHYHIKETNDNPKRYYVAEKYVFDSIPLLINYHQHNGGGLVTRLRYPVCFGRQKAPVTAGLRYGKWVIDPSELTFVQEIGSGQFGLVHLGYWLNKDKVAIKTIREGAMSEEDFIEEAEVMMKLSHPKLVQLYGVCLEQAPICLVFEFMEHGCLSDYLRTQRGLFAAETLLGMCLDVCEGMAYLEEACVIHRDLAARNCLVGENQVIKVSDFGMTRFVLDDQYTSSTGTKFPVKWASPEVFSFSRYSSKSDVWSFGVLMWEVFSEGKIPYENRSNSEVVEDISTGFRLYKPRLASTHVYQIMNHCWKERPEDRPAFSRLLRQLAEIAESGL

Row | SMILES | pIC50 [1] | pIC50 [2]
1 | CC(=O)N(C)c1ccc2[nH]c(-c3n[nH]c4c3C[C@H]3C(F)(F)[C@@]3(C)C4)nc2c1 [Example 3, N-(2-((4aR,5aS)-5,5-difluoro-5a-methyl-1,4,4a,5,5a,6-hexahydrocyclopropa[f]indazol-3-yl)-1H-benzo[d]imidazol-5-yl)-N-methylacetamide] | 6.09 | 6.07
2 | CC(=O)N(C)c1cc2nc(-c3n[nH]c4c3C[C@@H]3C[C@]3(C)C4)[nH]c2c(F)c1C [Example 8, N-(7-fluoro-6-methyl-2-((4aS,5aR)-5a-methyl-1,4,4a,5,5a,6-hexahydrocyclopropa[f]indazol-3-yl)-1H-benzo[d]imidazol-5-yl)-N-methylacetamide] | 7.70 | 6.89
3 | CC(=O)N(C)c1cc2nc(-c3n[nH]c4c3C[C@@H]3C[C@]3(C)C4)[nH]c2cc1Br [Example 9, N-(6-bromo-2-((4aS,5aR)-5a-methyl-1,4,4a,5,5a,6-hexahydrocyclopropa[f]indazol-3-yl)-1H-benzo[d]imidazol-5-yl)-N-methylacetamide] | 7.70 | 6.86
4 | C[C@H](C(=O)N(C)c1cc(F)c2nc(-c3n[nH]c4c3C[C@@H]3C[C@]3(C)C4)[nH]c2c1)N1CCCOC1=O [Example 10, (R)-N-(4-fluoro-2-((4aS,5aR)-5a-methyl-1,4,4a,5,5a,6-hexahydrocyclopropa[f]indazol-3-yl)-1H-benzo[d]imidazol-6-yl)-N-methyl-2-(2-oxo-1,3-oxazinan-3-yl)propenamide] | 7.31 | 6.47
5 | C[C@@H](C(=O)N(C)c1cc(F)c2nc(-c3n[nH]c4c3C[C@@H]3C[C@]3(C)C4)[nH]c2c1)N1CCCOC1=O [Example 11, (S)-N-(4-fluoro-2-((4aS,5aR)-5a-methyl-1,4,4a,5,5a,6-hexahydrocyclopropa[f]indazol-3-yl)-1H-benzo[d]imidazol-6-yl)-N-methyl-2-(2-oxo-1,3-oxazinan-3-yl)propenamide] | 7.51 | 6.49
6 | Cc1cc2nc(-c3n[nH]c4c3C[C@@H]3C[C@]3(C)C4)[nH]c2cc1N(C)C(=O)C1C[C@@H]2[C@H](C1)C2(F)F (stereo partly drawn) [Example 13, (1R,5S)-6,6-difluoro-N-methyl-N-(5-methyl-2-((4aS,5aR)-5a-methyl-1,4,4a,5,5a,6-hexahydrocyclopropa[f]indazol-3-yl)-1H-benzo[d]imidazol-6-yl)bicyclo[3.1.0]hexane-3-carboxamide] | 8.15 | 7.31
7 | CCc1cc2[nH]c(-c3n[nH]c4c3C[C@@H]3C[C@]3(C)C4)nc2cc1N(C)C(C)=O [Example 16, N-(6-ethyl-2-((4aS,5aR)-5a-methyl-1,4,4a,5,5a,6-hexahydrocyclopropa[f]indazol-3-yl)-1H-benzo[d]imidazol-5-yl)-N-methylacetamide] | 7.64 | 6.93
8 | CC(=O)N(C)CC(=O)N(C)c1cc2nc(-c3n[nH]c4c3C[C@@H]3C[C@]3(C)C4)[nH]c2cc1C [Example 21, N-Methyl-N-(5-methyl-2-((4aS,5aR)-5a-methyl-1,4,4a,5,5a,6-hexahydrocyclopropa[f]indazol-3-yl)-1H-benzo[d]imidazol-6-yl)-2-(N-methylacetamido)acetamide] | 8.40 | 7.10

Other lines, results leading:

Row | pIC50 [1] | pIC50 [2] | SMILES
9 | 8.52 | 7.23 | Cc1cc2[nH]c(-c3n[nH]c4c3C[C@@H]3C[C@]3(C)C4)nc2cc1N(C)C(=O)CN1CCCOC1=O [Example 1, N-Methyl-N-(6-methyl-2-((4aS,5aR)-5a-methyl-1,4,4a,5,5a,6-hexahydrocyclopropa[f]indazol-3-yl)-1H-benzo[d]imidazol-5-yl)-2-(2-oxo-1,3-oxazinan-3-yl)acetamide]
10 | 7.80 | 7.07 | CCN(C(C)=O)c1cc2nc(-c3n[nH]c4c3C[C@@H]3C[C@]3(C)C4)[nH]c2cc1C [Example 5, N-ethyl-N-(6-methyl-2-((4aS,5aR)-5a-methyl-1,4,4a,5,5a,6-hexahydrocyclopropa[f]indazol-3-yl)-1H-benzo[d]imidazol-5-yl)acetamide]
11 | 8.15 | 7.33 | Cc1cc2nc(-c3n[nH]c4c3C[C@@H]3C[C@]3(C)C4)[nH]c2cc1N(C)C(=O)C1(F)CCOCC1 [Example 12, 4-fluoro-N-methyl-N-(5-methyl-2-((4aS,5aR)-5a-methyl-1,4,4a,5,5a,6-hexahydrocyclopropa[f]indazol-3-yl)-1H-benzo[d]imidazol-6-yl)tetrahydro-2H-pyran-4-carboxamide]
12 | 7.33 | 6.71 | Cc1cc2[nH]c(-c3n[nH]c4c3C[C@@H]3C[C@]3(C)C4)nc2cc1N(C)C(=O)C(C)N1CCCCC1 (stereo partly shown) [Example 14]
13 | 7.38 | 6.78 | Cc1cc2[nH]c(-c3n[nH]c4c3C[C@@H]3C[C@]3(C)C4)nc2cc1N(C)C(=O)C(C)N1CCCOCC1 (stereo partly drawn) [Example 15, N-methyl-N-(6-methyl-2-((4aS,5aR)-5a-methyl-1,4,4a,5,5a,6-hexahydrocyclopropa[f]indazol-3-yl)-1H-benzo[d]imidazol-5-yl)-2-(1,4-oxazepan-4-yl)propenamide]
14 | 7.27 | 6.43 | Cc1cc2[nH]c(-c3n[nH]c4c3C[C@@H]3C[C@]3(C)C4)nc2cc1N(C)C(=O)C(C)N1CCCC1=O (stereo partly drawn) [Example 18, N-Methyl-N-(5-methyl-2-((4aS,5aR)-5a-methyl-1,4,4a,5,5a,6-hexahydrocyclopropa[f]indazol-3-yl)-1H-benzo[d]imidazol-6-yl)-2-(2-oxopyrrolidin-1-yl)propenamide]
15 | 8.10 | 7.17 | Cc1cc2[nH]c(-c3n[nH]c4c3C[C@@H]3C[C@]3(C)C4)nc2cc1N(C)C(=O)C1CC1 [Example 19, N-Methyl-N-(5-methyl-2-((4aS,5aR)-5a-methyl-1,4,4a,5,5a,6-hexahydrocyclopropa[f]indazol-3-yl)-1H-benzo[d]imidazol-6-yl)cyclopropanecarboxamide]
16 | 8.40 | 7.23 | Cc1cc2[nH]c(-c3n[nH]c4c3C[C@@H]3C[C@]3(C)C4)nc2cc1N(C)C(=O)CN1CCCCC1=O [Example 20, N-Methyl-N-(5-methyl-2-((4aS,5aR)-5a-methyl-1,4,4a,5,5a,6-hexahydrocyclopropa[f]indazol-3-yl)-1H-benzo[d]imidazol-6-yl)-2-(2-oxopiperidin-1-yl)acetamide]
17 | 8.30 | 7.37 | Cc1cc2[nH]c(-c3n[nH]c4c3C[C@@H]3C[C@]3(C)C4)nc2cc1N(C)C(=O)C(C)C [Example 22, N-Methyl-N-(5-methyl-2-((4aS,5aR)-5a-methyl-1,4,4a,5,5a,6-hexahydrocyclopropa[f]indazol-3-yl)-1H-benzo[d]imidazol-6-yl)isobutyramide]
